# Reference: patent US11185554B2 (priority 2016, dated 2021)
# What was measured:
# ebola virus = test system: ebola virus; parameters: species or system C57BL/6J mice; settings: mouse, in vivo
# EBOV = test system: EBOV; parameters: species or system C57BL/6J mice; settings: mouse, in vivo
# [1] = test system: neutrophils and T cells in the peripheral blood; parameters: species or system C57BL/6J mice; settings: mouse, in vivo
# free radicals (ROS/RNS) = test system: free radicals (ROS/RNS); parameters: species or system C57BL/6J mice; settings: mouse, in vivo
# influenza = settings: mouse, in vivo; cited from earlier work
# [2] = test system: cytokines, chemokines in the peripheral blood; parameters: species or system C57BL/6J mice; settings: mouse, in vivo
smiles,measurement,setting,value
"CCCCCC/C=C\CCCCCCCCCC(=O)N[C@H]1[C@H](OC[C@H]2O[C@H](OP(=O)(O)O)[C@H](NC(=O)CC(=O)CCCCCCCCCCC)[C@@H](OCCCCCCCCCC)[C@@H]2O)O[C@H](COC)[C@@H](OP(=O)(O)O)[C@@H]1OCC[C@@H](CCCCCCC)OC [eritoran, α-D-Glucopyranose, 3-O-decyl-2-deoxy-6-O-[2-deoxy-3-O-[(3R)-3-methoxydecyl)-6-O-methyl-2-[[(-11Z)-1-oxo-11-octadecenyl)amino]-4-O-phosphono-3-D-glucopyranosyl]-2-[(1,3-dioxotetradecyl)amino]-1-(dihydrogen phosphate)]",protection against ebola virus challenge,ebola virus,does not protect
same,reduction of viremia versus placebo,EBOV,two-logs
same,viremia (quantitative RT-PCR),EBOV,10^5 genome equivalents per mL
same,"B-cells, NK-cells and monocytes populations",[1],no effect
same,"absolute count of CD3+, CD3+CD4+ and CD3+CD8+ T cells",[1],further reduced
same,expansion of the neutrophil population (absolute counts),[1],blocked expansion
same,"granulocytes, absolute count",[1],"2,786 cells/μl"
same,increase of percentages of CD4+ T cells positive for IL-4,[1],3.8 fold
same,increase of percentages of CD4 T cells positive for CD69,[1],2.8 fold
same,levels of IFNγ-secreting CD4+ T cells,[1],dramatically reduced
same,levels of IFNγ-secreting CD8+ T cells,[1],dramatically reduced
same,levels of IL-17A-secreting CD4+ T cells,[1],dramatically reduced
same,"percentages of CD11b+Ly6G/Ly6C+ neutrophils in gated granulocytes, placebo versus eritoran",[1],no difference
same,percentages of neutrophils expressing activation marker CD64,[1],significantly increased
same,percentages of neutrophils expressing activation marker CD69,[1],significantly increased
same,ratio of CD11b+Ly6G/Ly6C+ neutrophils to CD3+ T-lymphocytes,[1],11.05
same,ratio of CD11b+Ly6G/Ly6C+ neutrophils to total lymphocytes,[1],2.15
same,reduction of free radicals (ROS/RNS),free radicals (ROS/RNS),23%
same,protection from lethal influenza challenge,influenza,protected
same,decrease of serum levels of leukemia inhibitory factor (LIF),[2],10.3 fold
same,increase in the production of KC,[2],10.0 fold
same,increase of levels of G-CSF,[2],7.0 fold
same,increase of levels of M-CSF,[2],58%
same,reduction of serum IL-7 levels,[2],41%
same,serum IL-6 level,[2],reduced
same,serum IL-9 level,[2],reduced
same,serum IL-10 level,[2],reduced
same,serum IL-13 level,[2],reduced
same,serum MIG level,[2],significantly decreased
same,serum MIP-1α level,[2],significantly decreased
same,serum MIP-1β level,[2],significantly decreased
same,serum MIP-2 level,[2],significantly decreased
same,serum RANTES level,[2],significantly decreased
same,serum TNFα level,[2],reduced
same,serum IP-10 level,[2]; ip,significantly decreased
